# Assay results: patent publication US20090118332A1, “Therapeutic Agents - 551” (AstraZeneca AB, priority 2006, published 2009)
# Target: T1, human Fatty Acid Synthase (Homo sapiens, UniProt P49327)
# T1 construct: made in house
# Test: Human FAS enzyme assay (decrease in NADPH fluorescence)
# Assay type: biochemical
# Settings: % inhibition at a concentration of 100 μmolar
# In short: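 In-house human FAS was preincubated with compound and NADPH for 15 min at room temperature in 0.1 M Tris pH 7.5 with EDTA, glutathione and BSA. Malonyl CoA and acetyl CoA (500 μM and 150 μM in the added mix) were then added for 60 min. IC50 came from time-zero-subtracted NADPH fluorescence (340/460 nm).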
# T1 sequence (P49327 whole entry): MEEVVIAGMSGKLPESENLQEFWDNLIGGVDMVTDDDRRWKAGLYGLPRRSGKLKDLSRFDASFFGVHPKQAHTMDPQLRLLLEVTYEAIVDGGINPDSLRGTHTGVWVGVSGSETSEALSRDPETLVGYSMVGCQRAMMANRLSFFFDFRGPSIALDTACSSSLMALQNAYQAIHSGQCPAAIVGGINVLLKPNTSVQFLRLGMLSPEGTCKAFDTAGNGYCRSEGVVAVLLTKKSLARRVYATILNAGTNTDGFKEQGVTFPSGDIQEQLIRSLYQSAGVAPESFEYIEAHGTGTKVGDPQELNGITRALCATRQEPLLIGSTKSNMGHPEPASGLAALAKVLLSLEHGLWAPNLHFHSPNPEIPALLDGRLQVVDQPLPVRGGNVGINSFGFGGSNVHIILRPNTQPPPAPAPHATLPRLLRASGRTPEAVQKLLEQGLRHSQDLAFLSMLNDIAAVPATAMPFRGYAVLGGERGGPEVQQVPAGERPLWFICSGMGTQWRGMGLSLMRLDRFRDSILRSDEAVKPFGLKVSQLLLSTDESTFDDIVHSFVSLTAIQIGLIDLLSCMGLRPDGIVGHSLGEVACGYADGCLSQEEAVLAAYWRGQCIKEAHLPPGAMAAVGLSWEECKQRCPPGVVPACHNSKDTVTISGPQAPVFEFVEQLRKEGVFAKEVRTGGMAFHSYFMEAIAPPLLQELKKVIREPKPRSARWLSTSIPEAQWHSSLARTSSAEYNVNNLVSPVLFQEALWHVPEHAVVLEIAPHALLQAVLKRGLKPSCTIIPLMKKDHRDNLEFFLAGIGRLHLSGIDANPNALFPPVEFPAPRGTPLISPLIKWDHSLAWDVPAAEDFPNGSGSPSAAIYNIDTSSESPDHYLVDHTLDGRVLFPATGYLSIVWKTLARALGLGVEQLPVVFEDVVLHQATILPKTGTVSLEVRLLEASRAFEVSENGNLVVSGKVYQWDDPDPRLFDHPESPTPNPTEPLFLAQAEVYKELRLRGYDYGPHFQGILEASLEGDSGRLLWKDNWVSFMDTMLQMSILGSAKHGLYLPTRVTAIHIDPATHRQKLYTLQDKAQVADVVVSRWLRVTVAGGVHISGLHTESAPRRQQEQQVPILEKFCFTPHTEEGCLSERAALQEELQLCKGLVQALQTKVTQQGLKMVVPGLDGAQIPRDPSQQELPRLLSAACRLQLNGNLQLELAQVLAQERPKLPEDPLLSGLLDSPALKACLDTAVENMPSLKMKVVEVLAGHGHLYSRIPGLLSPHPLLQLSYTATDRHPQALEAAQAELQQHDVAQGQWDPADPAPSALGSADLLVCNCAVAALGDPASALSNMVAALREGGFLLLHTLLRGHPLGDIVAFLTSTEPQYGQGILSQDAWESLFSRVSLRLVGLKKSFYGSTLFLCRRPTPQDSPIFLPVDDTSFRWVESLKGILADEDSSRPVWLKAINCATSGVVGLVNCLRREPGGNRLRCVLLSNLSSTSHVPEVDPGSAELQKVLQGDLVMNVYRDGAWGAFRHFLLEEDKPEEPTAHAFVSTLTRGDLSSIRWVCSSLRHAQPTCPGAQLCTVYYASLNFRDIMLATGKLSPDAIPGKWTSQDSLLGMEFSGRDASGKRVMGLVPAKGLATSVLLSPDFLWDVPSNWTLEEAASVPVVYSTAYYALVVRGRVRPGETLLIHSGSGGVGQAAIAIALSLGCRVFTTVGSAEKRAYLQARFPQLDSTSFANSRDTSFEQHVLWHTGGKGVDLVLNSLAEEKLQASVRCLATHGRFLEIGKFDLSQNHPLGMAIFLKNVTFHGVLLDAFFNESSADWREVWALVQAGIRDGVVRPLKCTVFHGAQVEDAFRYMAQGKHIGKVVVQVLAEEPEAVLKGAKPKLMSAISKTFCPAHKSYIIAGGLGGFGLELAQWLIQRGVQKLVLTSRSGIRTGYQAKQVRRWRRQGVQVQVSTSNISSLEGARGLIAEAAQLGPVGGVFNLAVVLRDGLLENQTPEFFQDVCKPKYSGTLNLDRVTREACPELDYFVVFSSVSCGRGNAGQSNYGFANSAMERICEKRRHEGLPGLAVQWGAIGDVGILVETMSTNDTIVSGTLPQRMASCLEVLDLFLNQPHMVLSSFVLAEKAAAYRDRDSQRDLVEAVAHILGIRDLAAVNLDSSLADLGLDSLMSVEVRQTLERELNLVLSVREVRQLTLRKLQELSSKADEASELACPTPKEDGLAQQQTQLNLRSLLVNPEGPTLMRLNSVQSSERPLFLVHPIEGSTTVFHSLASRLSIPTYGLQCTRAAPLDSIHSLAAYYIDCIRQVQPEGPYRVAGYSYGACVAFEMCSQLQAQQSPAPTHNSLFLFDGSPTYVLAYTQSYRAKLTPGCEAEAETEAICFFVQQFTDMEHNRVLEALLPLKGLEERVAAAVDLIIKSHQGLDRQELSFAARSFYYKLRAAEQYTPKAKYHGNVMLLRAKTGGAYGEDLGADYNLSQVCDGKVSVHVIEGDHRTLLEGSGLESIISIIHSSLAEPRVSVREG
row,Structure (SMILES),inhibition at 100 µM [%]
1,"Cc1ccc(C(=O)N2CCC(c3ccc(C#N)cc3)CC2)cc1NC(=O)NC1CCC(C(=O)O)CC1 (stereo not drawn) [Example 406, 4-[[5-[4-(4-cyanophenyl)piperidine-1-carbonyl]-2-methylphenyl]carbamoylamino]cyclohexane-1-carboxylic acid]",93.4
2,"Cc1ccc(NC(=O)NCc2cccnc2)cc1C(=O)N1CCC(c2ccc(C#N)cc2)CC1 [Example 25, 1-[3-[4-(4-cyanophenyl)piperidine-1-carbonyl]-4-methyl-phenyl]-3-(pyridin-3-ylmethyl)urea]",79.7
3,"COc1ccc(C(=O)N2CCC(c3ccc(C#N)cc3)CC2)cc1NC(=O)NCc1ccccc1 [Example 9, 3-benzyl-1-[5-[4-(4-cyanophenyl)piperidine-1-carbonyl]-2-methoxy-phenyl]urea]",70.4
4,"COCCNC(=O)CCNC(=O)Nc1cc(C(=O)N2CCC(c3ccc(C#N)cc3)CC2)ccc1C [Example 128, 3-[[5-[4-(4-cyanophenyl)piperidine-1-carbonyl]-2-methyl-phenyl]carbamoylamino]-N-(2-methoxyethyl)propanamide]",87.5
5,"Cc1ccc(C(=O)N2CCC(c3ccc(C#N)cc3)CC2)cc1NC(=O)NC1CCN(C(=O)C(C)C)CC1 [Example 283, 1-[5-[4-(4-cyanophenyl)piperidine-1-carbonyl]-2-methyl-phenyl]-3-[1-(2-methylpropanoyl)-4-piperidyl]urea]",101
6,"CNCCNC(=O)Nc1cc(C(=O)N2CCC(c3ccc(F)cc3)CC2)ccc1C [Example 400, 1-[5-[4-(4-fluorophenyl)piperidine-1-carbonyl]-2-methylphenyl]-3-(2-methylaminoethyl)urea]",66.7
7,"Cc1ccc(C(=O)N2CCC(c3ccc(C#N)cc3)CC2)cc1NC(=O)NCCCN1CCCCCC1=O [Example 178, 1-[5-[4-(4-cyanophenyl)piperidine-1-carbonyl]-2-methyl-phenyl]-3-[3-(2-oxoazepan-1-yl)propyl]urea]",95.9
8,"Cc1ccc(C(=O)N2CCC(c3ccc(C#N)cc3)CC2)cc1NC(=O)NCCNc1ccc([N+](=O)[O-])cc1 [Example 87, 1-[5-[4-(4-cyanophenyl)piperidine-1-carbonyl]-2-methyl-phenyl]-3-[2-[(4-nitrophenyl)amino]ethyl]urea]",92.5
9,"Cc1ccc(C(=O)N2CCC(c3ccc(C#N)cc3)CC2)cc1NC(=O)NCC(C)(C)CO [Example 188, 1-[5-[4-(4-cyanophenyl)piperidine-1-carbonyl]-2-methyl-phenyl]-3-(3-hydroxy-2,2-dimethyl-propyl)urea]",89
10,"Cc1ccc(C(=O)N2CCC(c3ccc(C#N)cc3)CC2)cc1NC(=O)N(C)C1CCOCC1 [Example 396, 3-[5-[4-(4-cyanophenyl)piperidine-1-carbonyl]-2-methylphenyl]-1-methyl-1-(oxan-4-yl)urea]",62.9
11,"CCS(=O)(=O)N1CC[C@@H](NC(=O)Nc2cc(C(=O)N3CCC(c4ccc(C#N)cc4)CC3)ccc2C)C1 [Example 219, 3-[5-[4-(4-cyanophenyl)piperidine-1-carbonyl]-2-methyl-phenyl]-1-[(3R)-1-ethylsulfonylpyrrolidin-3-yl]urea]",88.8
12,"Cc1csc(CNC(=O)Nc2cc(C(=O)N3CCC(c4ccc(C#N)cc4)CC3)ccc2C)n1 [Example 264, 1-[5-[4-(4-cyanophenyl)piperidine-1-carbonyl]-2-methyl-phenyl]-3-[(4-methyl-1,3-thiazol-2-yl)methyl]urea]",90.1
13,"CCCCNC(=O)Nc1ccc(C)c(C(=O)N2CCC(c3ccc(C#N)cc3)CC2)c1 [Example 20, 1-butyl-3-[3-[4-(4-cyanophenyl)piperidine-1-carbonyl]-4-methyl-phenyl]urea]",79.2
14,"Cc1ccc(C(=O)N2CCC(c3ccc(C#N)cc3)CC2)cc1NC(=O)N(C)CC(=O)NC(C)C [Example 398, 2-[[5-[4-(4-cyanophenyl)piperidine-1-carbonyl]-2-methylphenyl]carbamoyl-methylamino]-N-propan-2-ylacetamide]",66.3
15,"Cc1ccc(C(=O)N2CCC(c3ccc(C#N)cc3)CC2)cc1NC(=O)NCCCn1cccn1 [Example 244, 1-[5-[4-(4-cyanophenyl)piperidine-1-carbonyl]-2-methyl-phenyl]-3-(3-pyrazol-1-ylpropyl)urea]",96.2
16,"Cc1ccc(C(=O)N2CCC(c3ccc(C#N)cc3)CC2)cc1NC(=O)NCCC(=O)N(C)C [Example 130, 3-[[5-[4-(4-cyanophenyl)piperidine-1-carbonyl]-2-methyl-phenyl]carbamoylamino]-N,N-dimethyl-propanamide]",90.5

row,Structure (SMILES),inhibition at 100 µM [%]
1,"Cc1ccc(C(=O)N2CCC(c3ccc(C#N)cc3)CC2)cc1NC(=O)NCCCc1cn[nH]c1C [Example 200, 1-[5-[4-(4-cyanophenyl)piperidine-1-carbonyl]-2-methyl-phenyl]-3-[3-(3-methyl-2H-pyrazol-4-yl)propyl]urea]",91.8
2,"Cc1ccc(C(=O)N2CCC(c3ccc(C#N)cc3)CC2)cc1NC(=O)NC1CN2CCC1CC2 (stereo not drawn) [Example 143, 3-(1-azabicyclo[2.2.2]oct-8-yl)-1-[5-[4-(4-cyanophenyl)piperidine-1-carbonyl]-2-methyl-phenyl]urea]",84.4
3,"Cc1ccc(C(=O)N2CCC(c3ccc(C(F)(F)F)cc3)CC2)cc1NC(=O)NC1CCCN(C(=O)OC(C)(C)C)C1 (stereo not drawn) [Example 333, tert-butyl 3-[[2-methyl-5-[4-[4-(trifluoromethyl)phenyl]piperidine-1-carbonyl]phenyl]carbamoylamino]piperidine-1-carboxylate]",90.9
4,"CCS(=O)(=O)NCCNC(=O)Nc1cc(C(=O)N2CCC(c3ccc(C#N)cc3)CC2)ccc1C [Example 110, 3-[5-[4-(4-cyanophenyl)piperidine-1-carbonyl]-2-methyl-phenyl]-1-[2-(ethylsulfonylamino)ethyl]urea]",94.2
5,"Cc1ccc(NC(=O)NC(C)(C)C)cc1C(=O)N1CCC(c2ccc(C#N)cc2)CC1 [Example 376, 3-tert-butyl-1-[3-[4-(4-cyanophenyl)piperidine-1-carbonyl]-4-methylphenyl]urea]",68.4
6,"Cc1ccc(NC(=O)NCc2ccncc2)cc1C(=O)N1CCC(c2ccc(C#N)cc2)CC1 [Example 379, 1-[3-[4-(4-cyanophenyl)piperidine-1-carbonyl]-4-methylphenyl]-3-(pyridin-4-ylmethyl)urea]",73.3
7,"Cc1ccc(C(=O)N2CCC(c3ccc(C#N)cc3)CC2)cc1NC(=O)N(CCO)C(C)C [Example 395, 3-[5-[4-(4-cyanophenyl)piperidine-1-carbonyl]-2-methylphenyl]-1-(2-hydroxyethyl)-1-propan-2-ylurea]",71.6
8,"Cc1ccc(C(=O)N2CCC(c3ccc(C#N)cc3)CC2)cc1NC(=O)N[C@H]1CC[C@H](O)CC1 [Example 193, 1-[5-[4-(4-cyanophenyl)piperidine-1-carbonyl]-2-methyl-phenyl]-3-(4-hydroxycyclohexyl)urea]",85.8
9,"Cc1ccc(C(=O)N2CCC(c3ccc(C#N)cc3)CC2)cc1NC(=O)NC(Cc1ccc(F)cc1)C(=O)O (stereo not drawn) [Example 369, 2-[[5-[4-(4-cyanophenyl)piperidine-1-carbonyl]-2-methylphenyl]carbamoylamino]-3-(4-fluorophenyl)propanoic acid]",88.5
10,"Cc1ccc(C(=O)N2CCC(c3ccc(C(F)(F)F)cc3)CC2)cc1NC(=O)NCCNC(=O)OC(C)(C)C [Example 336, tert-butyl N-[2-[[2-methyl-5-[4-[4-(trifluoromethyl)phenyl]piperidine-1-carbonyl]phenyl]carbamoylamino]ethyl]carbamate]",86.9
11,"Cc1ccc(C(=O)N2CCC(c3ccc(C#N)cc3)CC2)cc1NC(=O)NCCN1CCCC1=O [Example 176, 1-[5-[4-(4-cyanophenyl)piperidine-1-carbonyl]-2-methyl-phenyl]-3-[2-(2-oxopyrrolidin-1-yl)ethyl]urea]",92.6
12,"COC(=O)C1CCC(NC(=O)Nc2cc(C(=O)N3CCC(c4ccc(C#N)cc4)CC3)ccc2C)CC1 (stereo not drawn) [Example 181, Methyl 4-[[5-[4-(4-cyanophenyl)piperidine-1-carbonyl]-2-methyl-phenyl]carbamoylamino]cyclohexane-1-carboxylate]",93.1
13,"Cc1ccc(C(=O)N2CCC(c3ccc(C#N)cc3)CC2)cc1NC(=O)NC1CCCN(C(=O)OC(C)(C)C)C1 (stereo not drawn) [Example 279, tert-butyl 3-[[5-[4-(4-cyanophenyl)piperidine-1-carbonyl]-2-methyl-phenyl]carbamoylamino]piperidine-1-carboxylate]",99.4
14,"Cc1ccc(C(=O)N2CCC(c3ccc(C#N)cc3)CC2)cc1NC(=O)NCCc1cccnc1 [Example 66, 1-[5-[4-(4-cyanophenyl)piperidine-1-carbonyl]-2-methyl-phenyl]-3-(2-pyridin-3-ylethyl)urea]",91.5
15,"CCCCNC(=O)NCCNC(=O)Nc1cc(C(=O)N2CCC(c3ccc(C#N)cc3)CC2)ccc1C [Example 172, 1-butyl-3-[2-[[5-[4-(4-cyanophenyl)piperidine-1-carbonyl]-2-methyl-phenyl]carbamoylamino]ethyl]urea]",91.8

# Same assay, conditions: FAS enzyme assay, IC50 from fitted sigmoid curves
row,Structure (SMILES),"IC50, inhibition of human Fatty Acid Synthase"
1,Cc1ccc(C(=O)N2CCC(c3ccc(C#N)cc3)CC2)cc1NC(=O)N(C)CCNC(=O)C(C)C [N-[2-[[5-[4-(4-cyanophenyl)piperidine-1-carbonyl]-2-methylphenyl]carbamoyl-methylamino]ethyl]-2-methylpropanamide],do not have IC50s in the range of about 0.001 μM to about 30 μM
2,Cc1ccc(C(=O)N2CCC(c3ccc(C#N)cc3)CC2)cc1NC(=O)N(C)CC1CCCO1 (stereo not drawn) [3-[5-[4-(4-cyanophenyl)piperidine-1-carbonyl]-2-methylphenyl]-1-methyl-1-(oxolan-2-ylmethyl)urea],do not have IC50s in the range of about 0.001 μM to about 30 μM
